Assay results as given in patent US9096639B2, “17-hydroxy-17-pentafluorethyl-estra-4,9(10)-dien-11-acyloxyalkylene phenyl derivatives, methods for the production thereof and use thereof for treating diseases” (Bayer Intellectual Property GmbH, priority 2009, dated 2015).

Columns and labels:
[1] = Determination of hydrolytic stability in synthetic gastric juice (pH 1.2 buffer with pepsin); type: in vitro ADME; details: 37° C., pH 1.2 with added pepsin, test ended after 24 hours, read-out: Hydrolytic stability t1/2 in synthetic gastric juice (converted)
Protocol: The esters to be analyzed were dissolved in each case in a buffer solution of pH 1.2 with added pepsin at 37° C. At different times, the content of ester and hydrolysis products (8S,11R,13S,14S,17S)-17-hydroxy-11-[4-((R)-1-hydroxyethyl)phenyl]-1 3-methyl-17-pentafluoroethyl-1,2,6,7,8,11,12,13,14,15,16,17-dodecahydrocyclopenta[a]phenanthren-3-one and/or (8S,11R,13S,14S,17S)-17-hydroxy-11-[4-((S)-1-hydroxyethyl)phenyl]-13-methyl-17-pentafluoroethyl-1,2,6,7,8,11,12,13,14,15,16,17-dodecahydrocyclopenta[a]phenanthren-3-one was determined by HPLC. The test was ended after 24 hours.

[2] = Determination of stability in human plasma; type: in vitro ADME
Protocol: A stock solution of 1.0 mg of the substance to be tested in a 9:1 mixture of acetonitrile and dimethyl sulphoxide was prepared. 20 μl of this stock solution were added at 37° C. to 1 ml of human plasma or rat plasma. To determine the content, 100 μl samples were each taken at different times. The enzyme activity was blocked by adding 300 μl of acetonitrile, the samples were centrifuged at 5000 rpm over 10 minutes and, in the supernatant, the content of ester and hydrolysis products (8S,11R,13S,14S,17S)-17-hydroxy-11-[4-((R)-1-hydroxyethyl)phenyl]-1 3-methyl-17-pentafluoroethyl-1,2,6,7,8,11,12,13,14,15,16,17-dodecahydrocyclopenta[a]phenanthren-3-one and/or (8S,11R,13S,14S,17S)-17-hydroxy-11-[4-((S)-1-hydroxyethyl)phenyl]-13-methyl-17-pentafluoroethyl-1,2,6,7,8,11,12,13,14,15,16,17-dodecahydrocyclopenta[a]phenanthrene-3-one was determined by HPLC. The concentration-time curves were used to calculate the degradation kinetics. The stability of the substance tested was reported as the half-life.

[3] = target: T1, human progesterone receptor A (Homo sapiens, UniProt P06401); assay: Progesterone receptor transactivation test in stably transfected SK-N-MC cells (PR-A, MMTV-LUC reporter); type: cell-based; details: 0.1 nmol/l promegestone, 24 hours, read-out: PR-A IC50 (antagonistic potency)
T1 construct: expressed in transfected cells; host or cells: SK-N-MC human neuroblastoma cells, stably transfected with pRChPR-A-neo and pMMTV-LUC
T1 sequence (P06401 1-769 isoform P06401-2): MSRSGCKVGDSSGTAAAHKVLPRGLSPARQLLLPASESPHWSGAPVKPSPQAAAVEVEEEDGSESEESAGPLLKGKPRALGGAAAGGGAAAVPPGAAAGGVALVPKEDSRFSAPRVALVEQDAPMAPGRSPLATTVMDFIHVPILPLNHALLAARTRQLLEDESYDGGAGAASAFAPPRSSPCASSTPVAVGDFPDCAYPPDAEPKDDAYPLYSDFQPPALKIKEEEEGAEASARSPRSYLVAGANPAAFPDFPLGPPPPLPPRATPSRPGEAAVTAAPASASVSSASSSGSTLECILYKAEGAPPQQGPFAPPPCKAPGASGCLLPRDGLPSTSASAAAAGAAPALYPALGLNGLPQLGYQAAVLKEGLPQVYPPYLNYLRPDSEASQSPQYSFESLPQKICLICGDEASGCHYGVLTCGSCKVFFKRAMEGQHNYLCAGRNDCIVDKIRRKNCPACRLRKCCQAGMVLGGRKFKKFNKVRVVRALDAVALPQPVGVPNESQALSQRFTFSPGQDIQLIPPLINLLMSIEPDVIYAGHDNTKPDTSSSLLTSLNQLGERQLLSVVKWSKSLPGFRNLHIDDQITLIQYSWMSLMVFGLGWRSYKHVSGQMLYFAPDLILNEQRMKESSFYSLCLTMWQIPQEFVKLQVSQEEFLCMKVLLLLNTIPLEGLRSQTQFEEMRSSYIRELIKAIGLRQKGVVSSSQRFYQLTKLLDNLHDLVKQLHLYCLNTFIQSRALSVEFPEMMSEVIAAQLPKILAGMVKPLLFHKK
Protocol: Progesterone receptor-antagonistic action in stable transfectants of human neuroblastoma cells (SK-N-MC cells) with the human progesterone A or progesterone B receptor and an MN-LUC reporter construct SK-N-MC cells (human neuroblastoma cells) which have been stably transfected with plasmids expressing the human progesterone receptor B (pRChPR-B-neo) or the human progesterone receptor A (pRChPR-A-neo) and a reporter construct (pMMTV-LUC) were incubated for 24 hours either in the absence (negative control) or in the presence of ascending amounts of the particular test compound (0.01 nmol/l, 0.1 nmol/l, 1 […], 100 nmol/l and […]), in order to determine the agonistic efficacy. As a positive control of the reporter gene induction, the cells were treated with the synthetic gestagen promegestone (0.01 nmol/l, 0.1 nmol/l, 1 nmol/l, 10 nmol/l, 100 nmol/l and […]). To determine the antagonistic activity, the cells were treated with 0.1 nmol/l promegestone and additionally with ascending amounts of the particular test compound (0.01 nmol/l, 0.1 nmol/l, 1 nmol/l, 10 nmol/l, 100 nmol/l and […]). The activity of the reporter gene LUC (LUC=luciferase) was determined in the cell lysates and measured as RLU (relative light units). All measurements are reported as % efficacy and as EC50 and IC50 concentrations.

[4] = 37° C., read-out: Stability t1/2 in human plasma (converted)
[5] = method of working example 19, summary statement in description, read-out: half-life in human plasma

| half-life [1] | half-life [2, 4] | half-life [2, 5] | IC50 [3] | SMILES |
| --- | --- | --- | --- | --- |
| > 24 h | > 1000 h | > 100 h | 200 pM | CC(OC(=O)CC(C)(C)C)c1ccc([C@H]2C[C@@]3(C)C(CC[C@@]3(O)C(F)(F)C(F)(F)F)C3CCC4=CC(=O)CCC4=C32)cc1 (mixture of isomers) [Example 4, 3,3-Dimethylbutyric acid (RS)-1-[4-((8S,11R,13S,14S,17S)-17-hydroxy-13-methyl-3-oxo-17-pentafluoroethyl-2,3,6,7,8,11,12,13,14,15,16,17-dodecahydro-1H-cyclopenta[a]phenanthren-11-yl)phenyl]ethyl ester] |
| 9.6 h | 609 h | > 100 h | 70 pM | CC(=O)O[C@H](C)c1ccc([C@H]2C[C@@]3(C)C(CC[C@@]3(O)C(F)(F)C(F)(F)F)C3CCC4=CC(=O)CCC4=C32)cc1 (mixture of isomers) [Example 1, acetic acid (RS)-1-[4-((8S,11R,13S,14S,17S)-17-hydroxy-13-methyl-3-oxo-17-pentafluoroethyl-2,3,6,7,8,11,12,13,14,15,16,17-dodecahydro-1H-cyclopenta[a]phenanthren-11-yl)phenyl]ethyl ester] |
| > 24 h | > 1000 h | > 100 h | 210 pM | CC(C)CC(=O)OC(C)c1ccc([C@H]2C[C@@]3(C)C(CC[C@@]3(O)C(F)(F)C(F)(F)F)C3CCC4=CC(=O)CCC4=C32)cc1 (mixture of isomers) [Example 3, 3-Methylbutyric acid (RS)-1-[4-((8S,11R,13S,14S,17S)-17-hydroxy-13-methyl-3-oxo-17-pentafluoroethyl-2,3,6,7,8,11,12,13,14,15,16,17-dodecahydro-1H-cyclopenta[a]phenanthren-11-yl)phenyl]ethyl ester] |
| > 24 h | 803 h | > 100 h | 100 pM | CC(C)C(=O)OC(C)c1ccc([C@H]2C[C@@]3(C)C(CC[C@@]3(O)C(F)(F)C(F)(F)F)C3CCC4=CC(=O)CCC4=C32)cc1 (mixture of isomers) [Example 2, Isobutyric acid (RS)-1-[4-((8S,11R,13S,14S,17S)-17-hydroxy-13-methyl-3-oxo-17-pentafluoroethyl-2,3,6,7,8,11,12,13,14,15,16,17-dodecahydro-1H-cyclopenta[a]-phenanthren-11-yl)phenyl]ethyl ester] |

The remaining lines, values behind:

| SMILES | half-life [1] | half-life [2, 4] | half-life [2, 5] | IC50 [3] |
| --- | --- | --- | --- | --- |
| CC(OC(=O)[C@@H](NC(=O)OC(C)(C)C)C(C)C)c1ccc([C@H]2C[C@@]3(C)C(CC[C@@]3(O)C(F)(F)C(F)(F)F)C3CCC4=CC(=O)CCC4=C32)cc1 (mixture of isomers) [Example 5, (S)-2-tert-Butoxycarbonylamino-3-methylbutyric acid (RS)-1-[4-((8S,11R,-13S,14S,17S)-17-hydroxy-13-methyl-3-oxo-17-pentafluoroethyl-2,3,6,7,8,11,12,13,14,15,-16,17-dodecahydro-1H-cyclopenta[a]phenanthren-11-yl)phenyl]ethyl ester] | 3 h | > 1000 h | > 100 h | 300 pM |
| CC(OC(=O)[C@@H](C)NC(=O)OC(C)(C)C)c1ccc([C@H]2C[C@@]3(C)[C@@H](CC[C@@]3(O)C(F)(F)C(F)(F)F)[C@@H]3CCC4=CC(=O)CCC4=C32)cc1 (mixture of isomers) [Example 6, (R)-2-tert-Butoxycarbonylaminopropionic acid (RS)-1-[4-((8S,11R,13S,-14S,17S)-17-hydroxy-13-methyl-3-oxo-17-pentafluoroethyl-2,3,6,7,8,11,12,13,14,15,16,17-dodecahydro-1H-cyclopenta[a]phenanthren-11-yl)phenyl]ethyl ester] | 5.4 h | 491 h | > 100 h | 100 pM |
| CC(OC(=O)[C@H](C)NC(=O)OC(C)(C)C)c1ccc([C@H]2C[C@@]3(C)C(CC[C@@]3(O)C(F)(F)C(F)(F)F)C3CCC4=CC(=O)CCC4=C32)cc1 (mixture of isomers) [Example 7, (S)-2-tert-Butoxycarbonylaminopropionic acid (RS)-1-[4-((8S,11R,13S,-14S,17S)-17-hydroxy-13-methyl-3-oxo-17-pentafluoroethyl-2,3,6,7,8,11,12,13,14,15,16,17-dodecahydro-1H-cyclopenta[a]phenanthren-11-yl)phenyl]ethyl ester] | 4.4 h | > 1000 h | > 100 h | 140 pM |
